Test results taken from US9096543B2, “Nuclear transport modulators and uses thereof” (Karyopharm Therapeutics Inc., priority 2012, dated 2015).

Columns and labels:
[1] = MTT Cell Proliferation Assay (CellTiter 96 AQueous One Solution, MTS); type: cell-based; settings: human; 72 h treatment; cell line not given; read-out: Cytotoxicity [IC50]
Description: The CellTiter 96® AQueous One Solution cell proliferation assay (Promega) was used on MM1.S, Jurkat and HCT-116 cells to study the cytotoxic and cytostatic properties of the compounds. The assay is based on the cleavage of the tetrazolium salt, MTS, in the presence of an electron-coupling reagent PES (phenazine ethosulfate). The MTS tetrazolium compound is bioreduced by cells into a colored formazan product that is soluble in tissue culture medium. This conversion is presumably accomplished by NADPH or NADH produced by dehydrogenase enzymes in metabolically active cells. Assays are performed by adding a small amount of the CellTiter 96® AQueous One solution reagent directly to culture wells, incubating for 1-4 hours and then recording the absorbance at 490 nm with a 96-well plate reader. […] The cells were seeded at 5×10^3 to 1.5×10^4 cells (depending on cell type) in each well of 96-well plate in 100 μL of fresh culture medium and adherent cells were allowed to attach for overnight. The stock solutions of the compounds were diluted in cell culture medium to obtain eight concentrations of each drug, ranging from 1 nM to 30 μM and DMSO at less than 1% v/v was used as a negative control. After 72 h of treatment 20 μl of CellTiter 96® AQueous reagent was added into each well of the 96-well assay plates and the plate was incubate at 37° C. for 1-4 hours in a humidified, 5% CO2 atmosphere. Then the absorbance of each well was recorded at 490 nm by using a 96-well plate reader. In most cases the assay was performed in triplicates and the results were presented as half maximal inhibitory concentration (IC50) described below. Optical density versus compound concentration was plotted and analyzed using non linear regression equations (Excel Fit) and the IC50 for each compound was calculated.

CRM1 = biological target: T1, CRM1 (Homo sapiens, UniProt O14980); assay: RevGFP assay: inhibition of CRM1 mediated nuclear export; type: cell-based; settings: U2OS-RevGFP cells, ~1 hr with compound; read-out: Rev Export [IC50]
T1 construct: endogenous in cells; host or cells: U2OS-RevGFP cells
T1 sequence (O14980 whole entry): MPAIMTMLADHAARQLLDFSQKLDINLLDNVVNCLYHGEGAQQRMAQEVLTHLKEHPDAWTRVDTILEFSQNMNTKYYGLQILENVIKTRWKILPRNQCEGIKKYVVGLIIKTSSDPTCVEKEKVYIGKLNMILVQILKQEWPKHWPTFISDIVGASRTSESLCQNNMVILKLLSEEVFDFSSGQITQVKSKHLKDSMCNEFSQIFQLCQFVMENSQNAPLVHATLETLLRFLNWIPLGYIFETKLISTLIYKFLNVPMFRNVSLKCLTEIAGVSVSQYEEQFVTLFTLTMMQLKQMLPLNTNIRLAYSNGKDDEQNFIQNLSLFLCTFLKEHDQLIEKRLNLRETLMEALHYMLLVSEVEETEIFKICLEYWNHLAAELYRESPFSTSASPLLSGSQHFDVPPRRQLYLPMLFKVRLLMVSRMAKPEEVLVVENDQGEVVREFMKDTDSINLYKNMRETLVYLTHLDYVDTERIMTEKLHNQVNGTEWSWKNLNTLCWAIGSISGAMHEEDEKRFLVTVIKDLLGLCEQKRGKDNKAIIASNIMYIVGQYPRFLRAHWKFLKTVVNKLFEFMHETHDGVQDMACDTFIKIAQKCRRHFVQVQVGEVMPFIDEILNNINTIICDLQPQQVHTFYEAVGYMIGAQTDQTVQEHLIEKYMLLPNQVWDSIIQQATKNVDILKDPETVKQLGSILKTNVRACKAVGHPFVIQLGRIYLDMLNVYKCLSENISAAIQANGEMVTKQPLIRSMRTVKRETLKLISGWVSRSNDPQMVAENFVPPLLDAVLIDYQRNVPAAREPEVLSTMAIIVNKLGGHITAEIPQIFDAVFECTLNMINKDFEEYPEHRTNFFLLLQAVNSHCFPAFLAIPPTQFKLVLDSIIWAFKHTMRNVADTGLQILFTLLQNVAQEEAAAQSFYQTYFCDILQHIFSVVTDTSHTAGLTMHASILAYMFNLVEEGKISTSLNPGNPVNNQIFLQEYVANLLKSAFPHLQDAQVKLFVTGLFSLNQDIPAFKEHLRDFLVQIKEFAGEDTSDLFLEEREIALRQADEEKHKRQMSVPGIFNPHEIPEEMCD
Method: The inhibition of CRM1 mediated nuclear export by compounds of the invention was determined. The inhibitory activity of compounds for the CRM1 protein was determined in the RevGFP assay.
Experimental protocol: Rev is a protein from human immunodeficiency virus type 1 (HIV-1) and contains a nuclear export signal (NES) in its C-terminal domain and a nuclear localization signal (NLS) in its N-terminal domain. Nuclear export of Rev protein is dependent on the classical NES/CRM1 pathway (Neville et al, 1997, Kau et al, 2003). Nuclear accumulation of Rev is observed in cells treated with specific inhibitors of CRM1, such as LMB (Kau et al, 2003). In this assay, U2OS-RevGFP cells are seeded onto clear-bottom, black, 384-well plates the day before the experiment. Compounds are serially diluted 1:2 starting from 40 μM in a separate 384-well plate in DMEM, and then transferred onto cells. Cells are incubated with compound for ˜1 hr before fixation with 3.7% formaldehyde and nuclei staining with Hoechst 33258. The amount of GFP in cell nuclei was measured and compound IC50s were determined (Kau et al, 2003).

[2] = Pharmacokinetics (plasma AUC) in mice; type: in vivo; settings: mouse
Method: Blood was collected from mice (N=3) to contribute to the total of 10 time points (pre-dose, 5 min, 15 min, 30 min, 1 hour, 2 hours, 4 hours, 8 hours, 12 hours and 24 hours post dose). Mice were bled on a rotating basis, each mouse contributing 3 time points to the blood collection. At the designated time points, animals were anaesthetized under isoflurane, and approximately 110 μL of blood per time point was collected via retro-orbital puncture into pre-cooled K2EDTA (anti-coagulant) tubes. Blood samples were put on wet ice and centrifuged (2000 g, 5 min at 4° C.) to obtain plasma within 30 minutes of sample collection. All samples were stored frozen at approximately −80° C. until analysis. Prior to analysis, samples were mixed with internal standard (dexamethasone) in acetonitrile, vortexed, centrifuged, and supernatant was injected for analysis. Concentration of compounds in plasma was determined using LC-MS-MS instrumentation (API 4000, Triple Quadruple with electrospray ionization; Acuity Ultra Performance Liquid Chromatography column C18, with MeOH and formic acid as organic solvents). PK parameters including but not limited to Tmax, Cmax, t1/2, AUClast, AUCinf were calculated using WinNonlin Professional 6.2 software package, non-compartmental pharmacokinetic model NCA200.

[3] = Brain to plasma ratio (B:P) in mice; type: in vivo; settings: for Kp at 2 h: mouse, brain and plasma, 10 mg/kg po, 2 hours post-dose
Method: Brain tissue following collection was rinsed with cold saline, dried on filter paper, weighed and snap-frozen by placing on dry ice. All samples were stored frozen at approximately −80° C. until analysis. […] Plasma samples were treated with the identical method (except homogenization step) and concentration of compound in either matrix was calculated based on the generated standard curves.

| SMILES | IC50 at 72 h [1] [nM] | IC50 (CRM1) [nM] | AUC(0-inf) ([2]; 10 mg/kg po) [ng·h/mL] | Kp at 2 h [3] | AUC(0-inf) ([2]; 5 mg/kg iv) [ng·h/mL] | levels in the brain ([3]; dosed po) | AUC(0-inf) ([2]; 5 mg/kg po) [ng·h/mL] |
| --- | --- | --- | --- | --- | --- | --- | --- |
| O=C(/C=C\n1cnc(-c2cc(C(F)(F)F)cc(C(F)(F)F)c2)n1)NNC(=O)C1CCCNC1 (stereo not drawn) [Compound 6, (Z)—N′-(3-(3-(3,5-bis(trifluoromethyl)phenyl)-1H-1,2,4-triazol-1-yl)acryloyl)piperidine-3-carbohydrazide] | < 1000 |  |  |  |  |  |  |
| O=C(/C=C\n1cnc(-c2cc(C(F)(F)F)cc(C(F)(F)F)c2)n1)NNC(=O)C(=O)N1CCOCC1 [Compound 12, (Z)-3-(3-(3,5-bis(trifluoromethyl)phenyl)-1H-1,2,4-triazol-1-yl)-N′-(2-morpholino-2-oxoacetyl)acrylohydrazide] | < 1000 | < 1000 | 19600 | 0.06 |  |  |  |
| O=C(/C=C\n1cnc(-c2cc(C(F)(F)F)cc(C(F)(F)F)c2)n1)NNC(=O)CN1CCOCC1=O [Compound 14, (Z)-3-(3-(3,5-bis(trifluoromethyl)phenyl)-1H-1,2,4-triazol-1-yl)-N′-(2-(3-oxomorpholino)acetyl)acrylohydrazide] | < 1000 |  | 1420 | 0 |  |  |  |
| CN(NC(=O)/C=C\n1cnc(-c2cc(C(F)(F)F)cc(C(F)(F)F)c2)n1)C(=O)CN1CCOCC1 [Compound 5, (Z)-3-(3-(3,5-bis(trifluoromethyl)phenyl)-1H-1,2,4-triazol-1-yl)-N′-methyl-N′-(2-morpholinoacetyl)acrylohydrazide] | < 1000 |  |  |  |  |  |  |
| CC(C)[C@H](N)C(=O)NNC(=O)/C=C\n1cnc(-c2cc(C(F)(F)F)cc(C(F)(F)F)c2)n1 [Compound 7, (S,Z)-2-amino-N′-(3-(3-(3,5-bis(trifluoromethyl)phenyl)-1H-1,2,4-triazol-1-yl)acryloyl)-3-methylbutanehydrazide 2,2,2-trifluoroacetate] | < 1000 |  |  |  |  |  |  |
| CC(C)[C@@H](N)C(=O)NNC(=O)/C=C\n1cnc(-c2cc(C(F)(F)F)cc(C(F)(F)F)c2)n1 [Compound 10, (R,Z)-2-amino-N′-(3-(3-(3,5-bis(trifluoromethyl)phenyl)-1H-1,2,4-triazol-1-yl)acryloyl)-3-methylbutanehydrazide 2,2,2-trifluoroacetate] | < 1000 |  |  |  |  |  |  |
| O=C(/C=C\n1cnc(-c2cc(C(F)(F)F)cc(C(F)(F)F)c2)n1)NNC(=S)NC1CC1 [Compound 4, (Z)-2-(3-(3-(3,5-bis(trifluoromethyl)phenyl)-1H-1,2,4-triazol-1-yl)acryloyl)-N-cyclopropylhydrazinecarbothioamide] | < 1000 |  | 20900 | 0.028 |  |  |  |
| Cc1[nH]ncc1C(=O)NNC(=O)/C=C\n1cnc(-c2cc(C(F)(F)F)cc(C(F)(F)F)c2)n1 [Compound 3, (Z)—N′-(3-(3-(3,5-bis(trifluoromethyl)phenyl)-1H-1,2,4-triazol-1-yl)acryloyl)-5-methyl-1H-pyrazole-4-carbohydrazide] | < 1000 | < 1000 | 15200 | 0.03 |  |  |  |
| CC1(C)COCCN1CC(=O)NNC(=O)/C=C\n1cnc(-c2cc(C(F)(F)F)cc(C(F)(F)F)c2)n1 [Compound 15, (Z)-3-(3-(3,5-bis(trifluoromethyl)phenyl)-1H-1,2,4-triazol-1-yl)-N′-(2-(3,3-dimethylmorpholino)acetyl)acrylohydrazide] | < 1000 |  | 588 | 0 |  |  |  |
| O=C(/C=C\n1cnc(-c2cc(C(F)(F)F)cc(C(F)(F)F)c2)n1)NNC(=O)c1cnccn1 [Compound 8, (Z)—N′-(3-(3-(3,5-bis(trifluoromethyl)phenyl)-1H-1,2,4-triazol-1-yl)acryloyl)pyrazine-2-carbohydrazide] | < 1000 |  | 9150 | 0.41 |  |  |  |
| CC1COCC(C)N1CC(=O)NNC(=O)/C=C\n1cnc(-c2cc(C(F)(F)F)cc(C(F)(F)F)c2)n1 (stereo not drawn) [Compound 13, (Z)-3-(3-(3,5-bis(trifluoromethyl)phenyl)-1H-1,2,4-triazol-1-yl)-N′-(2-(3,5-dimethylmorpholino)acetyl)acrylohydrazide] | < 1000 |  | 1100 | 1.5 |  |  |  |
| COc1cc(-c2ncn(/C=C\C(=O)OC(C)C)n2)cc(C(F)(F)F)c1 [Compound X-1, reference compound] | < 1000 | < 1000 |  |  | 209 | below the quantitation limit |  |
| O=C(/C=C\n1cnc(-c2cc(C(F)(F)F)cc(C(F)(F)F)c2)n1)NNC(=O)Cc1cnccn1 [Compound 11, (Z)-3-(3-(3,5-bis(trifluoromethyl)phenyl)-1H-1,2,4-triazol-1-yl)-N′-(2-(pyrazin-2-yl)acetyl)acrylohydrazide] | < 1000 |  | 8340 | 0.095 |  |  |  |
| CN1CCC(C(=O)NNC(=O)/C=C\n2cnc(-c3cc(C(F)(F)F)cc(C(F)(F)F)c3)n2)CC1 [Compound 9, (Z)—N′-(3-(3-(3,5-bis(trifluoromethyl)phenyl)-1H-1,2,4-triazol-1-yl)acryloyl)-1-methylpiperidine-4-carbohydrazide] | < 1000 |  |  |  |  |  | 671 |
